In the supplement of paper PMC7695840:
“And” between values parts separate entries of the source, which are not always exact repeats. Identical values can stand only once. Counter-ions that a name gives are not always drawn.

Assays:
[1] = test system: Staphylococcus aureus MW2 (mecA+); experiment: IC50 (growth, competition assay); conditions: cefoxitin: subinhibitory
Procedure, shortened: (§1)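 Two fluorescent S. aureus MW2 strains, one carrying and one lacking the resistance gene, were pre-induced, mixed 1:1 and grown unshaken in LB in 1536-well plates for 20 h at 37 °C and 90% humidity with a subinhibitory drug dose set each day. Compounds were tested on five- or nine-point 2-fold gradients in two dye-swapped replicates. DsRed (540/590) and GFP (485/520) signals were scaled per plate between the medians of single-strain controls, and No Treatment was then set to 0.5. For each strain, IC50 was taken as the dose that halved the No Treatment signal, or else the maximal signal.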

[2] = test system: Staphylococcus aureus MW2 delta-mecA (mecA-); experiment: IC50 (growth, competition assay); conditions: cefoxitin: subinhibitory
Procedure, shortened: as §1

SMILES | IC50 ([1]; fluorescent label: DsRed) | IC50 ([1]; fluorescent label: GFP) | IC50 ([2]; fluorescent label: DsRed) | IC50 ([2]; fluorescent label: GFP)
CO/N=C(\C(=O)N[C@@H]1C(=O)N2C(C(=O)OCOC(=O)C(C)(C)C)=C(/C=C\c3scnc3C)CS[C@H]12)c1csc(N)n1 [SPECTRACEF] | 32.9 µM | 18.7 µM | < 9.85 µM | < 9.85 µM
Cc1cc(C2CCCCC2)n(O)c(=O)c1 [Ciclopirox (Penlac)] | 19 µM | 30.1 µM | 29.7 µM | 29.5 µM
CC(C)(Sc1ccc(CCN(CCCCC2CCCCC2)C(=O)NC2CCCCC2)cc1)C(=O)O [GW7647] | 14.3 µM | 13.1 µM | < 9.85 µM | < 9.85 µM
C=CCc1ccccc1OCC(O)CNC1(C)CCC(C(C)(C)NC(=O)CBr)CC1 (configuration not stated) [Bromoacetyl alprenolol menthane] | 14.8 µM | 14.2 µM | < 9.85 µM | < 9.85 µM
Cn1cncc1[C@@](N)(c1ccc(Cl)cc1)c1ccc2c(c1)c(-c1cccc(Cl)c1)cc(=O)n2C [Tipifarnib (Zarnestra)] | 29.6 µM | 15.1 µM | < 9.85 µM | 11.3 µM
COC1=CC(=O)C(O)=C/C1=C\C=C\c1ccccc1 [OBTUSAQUINONE] | < 9.85 µM | < 9.85 µM | < 9.85 µM | < 9.85 µM
Oc1c(Cl)cc(Cl)cc1Sc1cc(Cl)cc(Cl)c1O [LOROTHIDOL] | < 9.85 µM | < 9.85 µM | < 9.85 µM | < 9.85 µM
O=C1C(SCCO)=C(SCCO)C(=O)c2ccccc21 | 11.8 µM | 16.3 µM | < 9.85 µM | < 9.85 µM
NCC(=O)Nc1ccc(-n2nc(C(F)(F)F)cc2-c2ccc3c(ccc4ccccc43)c2)cc1 | 21.6 µM and 20.8 µM | 29.3 µM and 14.7 µM | 8.83 µM and 14.5 µM | 3.48 µM and 14.7 µM
CC(=O)Oc1cc2c(c(C)c1OC(C)=O)CC=C1[C@@]2(C)CC[C@@]2(C)C3C[C@](C)(C(=O)O)CC[C@]3(C)CC[C@]12C (some centres not stated) [DIHYDROCELASTRYL DIACETATE] | < 9.85 µM | < 9.85 µM | < 9.85 µM | < 9.85 µM
CN(C(=O)CN(CCO)CC(=O)N(C)C(C)(C)Cc1ccccc1)C(C)(C)Cc1ccccc1 [OXETHAZAINE] | 103 µM | 111 µM | 40.2 µM | 30.5 µM
Nc1nc(/C(=C/CC(=O)O)C(=O)N[C@@H]2C(=O)N3C(C(=O)O)=CCS[C@H]23)cs1 [CEDAX] | 18.2 µM | 18.9 µM | < 9.85 µM | < 9.85 µM
CCCCCCCCCc1ccc(OCCOCCOCCOCCOCCOCCOCCOCCOCCO)cc1 [CONCEPTROL] | 32 µM | 37 µM | 12.8 µM | < 9.85 µM
C[C@H](Cc1ccc(O)c(O)c1)[C@@H](C)Cc1ccc(O)c(O)c1 | 33.4 µM | 57.9 µM | < 9.85 µM | < 9.85 µM
CC1(C)S[C@@H]2[C@H](NC(=O)[C@H](NC(=O)N3CCNC3=O)c3ccccc3)C(=O)N2[C@H]1C(=O)O [Azlocillin sodium salt] | < 9.85 µM | 27.7 µM | < 9.85 µM | < 9.85 µM
O=Nc1c(-c2c(O)[nH]c3cc(Br)ccc23)[nH]c2ccccc12 [BIO] | < 9.85 µM | < 9.85 µM | < 9.85 µM | < 9.85 µM
Oc1ccc(Cl)c2cccnc12 [CLOXYQUIN] | 26.9 µM | 89.7 µM | 33.8 µM | < 9.85 µM
Cc1onc(-c2c(Cl)cccc2Cl)c1C(=O)N[C@@H]1C(=O)N2[C@@H]1SC(C)(C)[C@@H]2C(=O)O [Dicloxacillin Sodium] | < 9.85 µM | < 9.85 µM | < 9.85 µM | < 9.85 µM
OCCN1CCN(CCCN2c3ccccc3Sc3ccc(Cl)cc32)CC1 [Perphenazine] | 70.8 µM | 65.7 µM | 27.1 µM | 21.1 µM
CCCCC[C@H](CC(=O)NO)C(=O)N[C@H](C(=O)N1CCC[C@H]1CO)C(C)C [ACTINONIN] | 27.8 µM | 37.7 µM | < 9.85 µM | < 9.85 µM
CCC(C)(C)C(=O)O[C@H]1C[C@@H](C)C=C2C=C[C@H](C)[C@H](CC[C@@H]3C[C@@H](O)CC(=O)O3)[C@H]21 [ZOCOR] | 129 µM | 115 µM | 47.8 µM | 57.6 µM
CCC[C@@H]1C[C@@H](C(=O)N[C@@H]([C@H]2O[C@H](SC)[C@H](O)[C@@H](O)[C@H]2O)[C@@H](C)O)N(C)C1 [LINCOCIN] | < 9.85 µM | < 9.85 µM | < 9.85 µM | < 9.85 µM
COC(=O)C1=C(C)NC(C)=C(C(=O)OCC(C)C)C1c1ccccc1[N+](=O)[O-] (configuration not stated) [Nisoldipine] | 63.1 µM | 99.2 µM | 12.7 µM | 7.55 µM
C=CCCCCCCCCCCCc1ccco1 [AVOCADENOFURAN] | 48.4 µM | 80.9 µM | 16.1 µM | < 9.85 µM

SMILES | IC50 ([1]; fluorescent label: DsRed) | IC50 ([1]; fluorescent label: GFP) | IC50 ([2]; fluorescent label: DsRed) | IC50 ([2]; fluorescent label: GFP)
NC(N)=NC(=O)c1nc(Cl)c(N2CCCCCC2)nc1N [5-(N,N-hexamethylene)amiloride] | 90.9 µM | 108 µM | 46.2 µM | 60.9 µM
Nc1ccc(/N=N/c2ccccc2)c(N)n1 [PYRIDIUM] | > 150 µM | > 150 µM | > 150 µM | > 150 µM
C[C@H]1[C@H](C)CC[C@]2(C(=O)O)CC[C@]3(C)C(=CC[C@@H]4[C@@]5(C)C[C@@H](O)[C@H](O)[C@@](C)(CO)[C@@H]5CC[C@]43C)[C@H]12 [ASIATIC ACID] | 109 µM | > 150 µM | 123 µM | 115 µM
N=C(N)c1ccc(OCCCCCOc2ccc(C(=N)N)cc2)cc1 [Pentamidine HCl] | 37.3 µM | 46.4 µM | 23.5 µM | 16.8 µM
CC(C)N(CCC(=O)c1ccc2ccccc2c1)Cc1ccccc1 | < 9.85 µM and 16.8 µM | 14.1 µM and 22.4 µM | < 9.85 µM | < 9.85 µM
Cc1cc(NC2CCCCC2)nc(-n2nc(C)cc2C)n1 [CyPPA] | 40 µM | 107 µM | 18.6 µM | 16.9 µM
O=c1[nH]c(=O)n([C@H]2C[C@H](O)[C@@H](CO)O2)cc1C(F)(F)F [VIROPTIC] | 59 µM | 108 µM | < 9.85 µM | < 9.85 µM
CC1=CC(=O)c2c(O)cccc2C1=O [PLUMBAGIN] | 18 µM | 38.3 µM | < 9.85 µM | < 9.85 µM
O=c1oc2ccccc2c(O)c1Cc1c(O)c2ccccc2oc1=O [DICUMOL] | 11.6 µM | 18.2 µM | 14 µM | 27 µM
O=C(c1ccc(Nc2nccc(-c3cc4ccccc4s3)n2)cc1)N1CCC(N2CCCC2)CC1 [IKK-16] | 49.4 µM | 56.8 µM | 18.3 µM | 17.7 µM
CC1=C2C(=CO[C@H](C)[C@H]2C)C(O)=C(C(=O)O)C1=O [CITRININ] | 29.8 µM | 47.6 µM | 26.2 µM | 29.4 µM
CCn1cc(C(=O)O)c(=O)c2cc(F)c(N3CCNCC3)cc21 [Norfloxacin (Norxacin)] | 0.816 µM | 0.772 µM | < 0.498 µM | < 0.498 µM
Clc1ccc(C(Cn2ccnc2)OCc2ccsc2Cl)c(Cl)c1 (configuration not stated) [VAGISTAT] | 29.6 µM | 30.6 µM | 16.9 µM | 15 µM
CC[C@@]1([C@H]2O[C@H]([C@H]3O[C@@](O)(CO)[C@H](C)C[C@@H]3C)C[C@H]2C)CC[C@H]([C@@]2(C)CC[C@]3(C[C@H](O)[C@@H](C)[C@@H]([C@H](C)[C@H](OC)[C@@H](C)C(=O)O)O3)O2)O1 [RUMENSIN] | < 9.85 µM | < 9.85 µM | < 9.85 µM | 12.5 µM
CCn1nc(C(=O)O)c(=O)c2cc3c(cc21)OCO3 [CINOBAC] | > 150 µM | 115 µM | 108 µM | 125 µM
CN1CCN(c2c(F)cc3c(=O)c(C(=O)O)cn4c3c2OCN4C)CC1 [Marbofloxacin] | 6.41 µM | 6.33 µM | 2.09 µM | 1.19 µM
CC[C@@H]1C(=O)N(C)c2cnc(Nc3ccc(C(=O)NC4CCN(C)CC4)cc3OC)nc2N1C1CCCC1 [BI 2536] | 106 µM | 112 µM | 21.6 µM | 30.1 µM
C/C(=C\C(=O)Nc1ccccc1C(=O)O)c1ccc2ccccc2c1 [BIBR1532] | < 9.85 µM | 12.3 µM | < 9.85 µM | < 9.85 µM
CCCCCCCCc1ccc(CCC(N)(CO)CO)cc1 [Fingolimod (FTY720)] | 15.2 µM and 14.7 µM | 18.8 µM and 14.9 µM | 11.8 µM and < 9.85 µM | 10.7 µM and < 9.85 µM
CCOc1nc2cccc(C(=O)OCc3oc(=O)oc3C)c2n1Cc1ccc(-c2ccccc2-c2noc(=O)[nH]2)cc1 [EDARBI] | 18.7 µM | 58.9 µM | 12.8 µM | < 9.85 µM
Cc1ccc(S(=O)(=O)c2ccc([N+](=O)[O-])o2)cc1 | < 9.85 µM | < 9.85 µM | < 9.85 µM | < 9.85 µM
CCCCCCCCCCCCCCCCOP(=O)([O-])OCC[N+](C)(C)C [MILTEX] | 35.2 µM | 33.7 µM | 31.1 µM | 28.1 µM
C[C@H]1O[C@@H](n2cc(F)c(=O)[nH]c2=O)[C@H](O)[C@@H]1O [Doxifluridine] | 3.93 µM | 11.1 µM | 0.661 µM | < 0.498 µM
CCCCC(CC)CN=C(N)N=C(N)NCCCCCCNC(N)=NC(N)=NCC(CC)CCCC (configuration not stated) [ALEXIDINE HYDROCHLORIDE] | < 9.85 µM | < 9.85 µM | < 9.85 µM | < 9.85 µM
